Molecules are shown by their SMILES.

Data set [1] concerns the target T1, ATP-dependent translocase ABCB1 (Homo sapiens, UniProt P08183). In words: Concentration required for 50% inhibition at binding site of human P-Glycoprotein (P-gp) in one-affinity model.
The target of data set [2] is T1, ATP-dependent translocase ABCB1. The data set can be described thus: Fraction of high affinity at binding site of human P-Glycoprotein (P-gp) in two-affinity model.
Data set [3] shares this target. The data set can be described thus: High affinity constant at binding site of human P-Glycoprotein (P-gp) in two-affinity model.

T1 sequence (P08183 whole entry): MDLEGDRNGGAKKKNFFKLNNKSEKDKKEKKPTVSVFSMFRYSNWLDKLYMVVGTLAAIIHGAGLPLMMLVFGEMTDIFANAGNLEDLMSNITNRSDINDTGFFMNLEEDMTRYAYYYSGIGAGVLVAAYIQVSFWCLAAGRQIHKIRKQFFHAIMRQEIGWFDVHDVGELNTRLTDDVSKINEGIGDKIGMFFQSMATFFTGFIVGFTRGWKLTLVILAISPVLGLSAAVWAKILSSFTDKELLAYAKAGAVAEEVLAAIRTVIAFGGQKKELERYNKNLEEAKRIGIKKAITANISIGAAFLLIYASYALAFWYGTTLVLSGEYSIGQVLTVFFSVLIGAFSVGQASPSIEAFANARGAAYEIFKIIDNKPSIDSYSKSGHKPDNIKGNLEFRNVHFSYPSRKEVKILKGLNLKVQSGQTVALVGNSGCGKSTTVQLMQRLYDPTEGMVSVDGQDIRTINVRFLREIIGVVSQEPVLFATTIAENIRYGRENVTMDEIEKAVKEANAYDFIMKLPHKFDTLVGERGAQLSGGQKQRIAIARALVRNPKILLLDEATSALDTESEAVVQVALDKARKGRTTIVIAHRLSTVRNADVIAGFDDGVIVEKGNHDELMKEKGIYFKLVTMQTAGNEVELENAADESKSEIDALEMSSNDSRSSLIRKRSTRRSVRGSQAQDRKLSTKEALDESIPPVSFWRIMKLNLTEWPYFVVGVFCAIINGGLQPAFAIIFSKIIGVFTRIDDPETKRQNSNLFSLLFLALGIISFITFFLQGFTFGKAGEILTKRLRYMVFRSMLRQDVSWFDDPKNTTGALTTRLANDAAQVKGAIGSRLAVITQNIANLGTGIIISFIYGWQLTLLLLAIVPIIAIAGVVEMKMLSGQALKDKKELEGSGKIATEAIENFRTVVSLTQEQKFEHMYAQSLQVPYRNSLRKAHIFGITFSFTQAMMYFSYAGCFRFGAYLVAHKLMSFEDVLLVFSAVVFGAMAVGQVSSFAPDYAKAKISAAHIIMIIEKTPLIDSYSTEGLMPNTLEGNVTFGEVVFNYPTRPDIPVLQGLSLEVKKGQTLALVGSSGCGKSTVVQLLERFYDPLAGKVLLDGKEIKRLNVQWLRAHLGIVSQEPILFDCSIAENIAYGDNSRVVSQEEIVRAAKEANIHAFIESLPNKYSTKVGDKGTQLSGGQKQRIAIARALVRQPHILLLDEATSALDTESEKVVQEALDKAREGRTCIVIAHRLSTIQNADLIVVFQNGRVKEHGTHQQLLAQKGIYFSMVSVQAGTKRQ

In general, IC50 refers to the midpoint of a concentration-inhibition curve. In turn, `COc1ccc2[nH]c([S+]([O-])Cc3ncc(C)c(OC)c3C)nc2c1` (stereo in doubt; form 1) [OMEPRAZOLE] registered an IC50 in data set [1] of 89 µM. Regarding `C=C[C@H]1C[N@@]2CC[C@H]1C[C@H]2[C@H](O)c1ccnc2ccc(OC)cc12` [QUININE], the Binding site fraction in data set [2] amounted to 0.2. On to `COc1ccc2[nH]c([S+]([O-])Cc3ncc(C)c(OC)c3C)nc2c1` (stereo in doubt; form 3) [OMEPRAZOLE], for which the IC50 in data set [1] was 91.2 µM.

Compound `C=C[C@H]1C[N@@]2CC[C@H]1C[C@@H]2[C@@H](O)c1ccnc2ccc(OC)cc12` [QUINIDINE] gave a Binding site fraction in data set [2] of 0.2. As for `COCCc1ccc(OCC(O)CNC(C)C)cc1` (stereo not given) [METOPROLOL], the Binding site fraction in data set [2] was found to be 0.2.

On to `COc1ccc(CCNCCCC(C#N)(c2ccc(OC)c(OC)c2)C(C)C)cc1OC` (racemic) [NORVERAPAMIL], for which the IC50 in data set [1] came out at 4.24 µM.

With `COc1ccc2[nH]c([S+]([O-])Cc3ncc(C)c(OC)c3C)nc2c1` (stereo in doubt; form 2) [OMEPRAZOLE], the IC50 in data set [1] stood at 97.2 µM.

For `O=C(CCCN1CCC(O)(c2ccc(Cl)cc2)CC1)c1ccc(F)cc1` [HALOPERIDOL], the Binding site fraction in data set [2] is 0.3. `CC(C)NCC(O)COc1ccc(CCNC(=O)NC(C)C)cc1` (stereo not given) [PAFENOLOL]: the Binding site fraction in data set [2] came out at 0.2. Compound `CC(C)NCC(O)COc1cccc2ccccc12` (stereo not given) [PROPRANOLOL] returned a Binding site fraction in data set [2] of 0.5. Same read-out and setting: the figure for `CN(C)CCCN1c2ccccc2Sc2ccc(Cl)cc21` [CHLORPROMAZINE] is 0.8; for `CC[C@]1(O)C[C@@H]2CN(CCc3c([nH]c4ccccc34)[C@@](C(=O)OC)(c3cc4c(cc3OC)N(C)[C@H]3[C@@](O)(C(=O)OC)[C@H](OC(C)=O)[C@]5(CC)C=CCN6CC[C@]43[C@@H]65)C2)C1` [VINBLASTINE] it is 0.4. What is called Ki is the equilibrium dissociation constant of an inhibitor or competing ligand from its target. Regarding `COC(=O)c1ccccc1-c1c2ccc(=N)cc-2oc2cc(N)ccc12`, the inhibition constant (Ki) in data set [3] turned out to be 100 nM. In data set [2], this compound came in with a Binding site fraction of 0.7. In data set [1], this compound came in with an IC50 of 0.5 µM.

(Values after ChEMBL document CHEMBL1135688, “Pharmacophore model of drugs involved in P-glycoprotein multidrug resistance: explanation of structural variety (hypothesis)” (J Med Chem, 2002).)
